Results published in patent publication US20220047556A1 (INSERM (Institut National de la Santé et de la Recherche …, priority 2018, published 2022).

Assays:
Assay type in all cases: cell-based, human
[1] = test system: PD-1 expression in T cells; assay: PD-1 mRNA levels in PMA/Io-activated T cells, real-time qPCR; details: T cells incubated 24 h, FIG. 1H
From the text: (H) PD-1 mRNA levels following PMA/Io stimulation of T cells, as assessed by Real-time qPCR. Data are represented as fold change to PMA/Io-activated cells assigned 1. […] Data represented as mean±SEM from 3 (H, J) and 2 (0) independent experiments.
Human colon carcinoma cell lines HT29 (microsatellite-instable (MSI)) and HCT116 (microsatellite-stable (MSS)) cells, BALB/c syngeneic colon carcinoma CT26 cell line, and human T cell lines Jurkat, J.RT3-T3.5 (JRT3), Myla, SeAx and HUT-78, were cultured in DMEM or RPMI 1640 complete media.
(§1) Activation of TCR signaling was performed either with phorbol myristate acetate (PMA) and Ionomycin (Io) or with plate-bound anti-CD3.

[2] = test system: PD-1 positive T cells; assay: Immunofluorescence quantification of PD-1 positive T cells; details: activated T cells treated 24 h, FIGS. 1K and 1L
[3] = test system: PD-1 expression in T cells; assay: PD-1 protein expression in PMA/Io-activated T cells, flow cytometry; details: T cells incubated 24 h, FIGS. 1I and 1J
Method: as §1
Flow cytometry analyzed were performed on Single cell suspension of hPBMCs and T cells using BD Accuri C6 software, or Diva (BD Biosciences) and FlowJo 9.3.2 (TreeStar) softwares (flow cytometry facility of TBM Core).

[4] = test system: JRT3 cells (TCR-activation marker CD69); assay: JRT3 functional assay: CD69 in JRT3 cells co-cultured with EPCR-expressing HT29 cells; details: 24 h, compared to JRT3 cells cultured alone, FIGS. 1N and 1O
Method: The Jurkat T cell line J.RT3-T3.5 (JRT3) stably expressing the human LES-γδ TCR (JRT3-LES) was incubated with the colon cancer cell line HT29 overexpressing the endothelial protein C receptor (HT29-EPCR) (34). The activation of JRT3-LES cells was evaluated by the expression of CD69.

[5] = test system: NF-κB phosphorylation; assay: phospho-NFκBp65 Western blot and densitometry in T cells after PMA/Io stimulation; details: Sulconazole 2 μM, FIG. 1M

`Clc1ccc(CSC(Cn2ccnc2)c2ccc(Cl)cc2Cl)cc1` (centres unmarked) [Sulconazole, 1-[2-[(4-chlorophenyl)methylsulfanyl]-2-(2,4-dichlorophenyl)ethyl]imidazole] was tested, and the “PD-1 expression at the RNA level” value [1] was “repressed PD-1 expression”, the “reduction of PD-1+ cells” value [2] was 50% and the “PD-1 expression at the protein level” value [3] was “repressed PD-1 expression”. For the same compound, the “CD69 expression and number of CD69 positive cells” value [4] was “increased in the absence or presence of Sulconazole” and the “NF-κB phosphorylation after PMA/Io stimulation” value [5] was “inhibited”.
